Laboratory results taken from ChEMBL document CHEMBL4402545, “Subtype Selective γ-Aminobutyric Acid Type A Receptor (GABAAR) Modulators Acting at the Benzodiazepine Binding Site: An Update” (J Med Chem, 2020).

Legend:
[1] = biological target: GABA-A receptor; alpha-5/beta-3/gamma-2 (Homo sapiens) (UniProt P18507+P28472+P31644); assay: Negative allosteric modulation of GABAA alpha5beta3gamma2 (unknown origin) expressed in Xenopus laevis oocytes assessed as inhibition of GABA-induced current response at -60 mV holding potential by two electrode voltage clamp method relative to control; format: cell-based; set-up: scale not given: the % may be the effect or the level left
[2] = biological target: T1, Gamma-aminobutyric acid receptor subunit alpha-1 (Homo sapiens) (UniProt P14867); assay: Negative allosteric modulation of GABA-A alpha1 (unknown origin) assessed as reduction in DMCM induced current relative to control
T1 sequence (whole entry): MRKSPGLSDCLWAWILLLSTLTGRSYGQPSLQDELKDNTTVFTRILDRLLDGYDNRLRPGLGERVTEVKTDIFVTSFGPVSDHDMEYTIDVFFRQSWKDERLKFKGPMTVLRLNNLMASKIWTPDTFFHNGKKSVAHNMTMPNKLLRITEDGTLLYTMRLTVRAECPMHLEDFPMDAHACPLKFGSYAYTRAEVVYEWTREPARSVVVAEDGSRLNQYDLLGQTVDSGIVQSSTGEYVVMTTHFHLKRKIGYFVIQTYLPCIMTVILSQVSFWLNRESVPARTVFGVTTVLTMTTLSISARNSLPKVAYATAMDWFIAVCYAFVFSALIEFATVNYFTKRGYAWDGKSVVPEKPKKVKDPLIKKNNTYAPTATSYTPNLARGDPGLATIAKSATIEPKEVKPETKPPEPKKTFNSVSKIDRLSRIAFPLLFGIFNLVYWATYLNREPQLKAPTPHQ

[3] = biological target: T2, Gamma-aminobutyric acid receptor subunit alpha-2 (Homo sapiens) (UniProt P47869); assay: Binding affinity to GABA-A alpha2 (unknown origin) assessed as reduction in DMCM induced current relative to control
T2 sequence (whole entry): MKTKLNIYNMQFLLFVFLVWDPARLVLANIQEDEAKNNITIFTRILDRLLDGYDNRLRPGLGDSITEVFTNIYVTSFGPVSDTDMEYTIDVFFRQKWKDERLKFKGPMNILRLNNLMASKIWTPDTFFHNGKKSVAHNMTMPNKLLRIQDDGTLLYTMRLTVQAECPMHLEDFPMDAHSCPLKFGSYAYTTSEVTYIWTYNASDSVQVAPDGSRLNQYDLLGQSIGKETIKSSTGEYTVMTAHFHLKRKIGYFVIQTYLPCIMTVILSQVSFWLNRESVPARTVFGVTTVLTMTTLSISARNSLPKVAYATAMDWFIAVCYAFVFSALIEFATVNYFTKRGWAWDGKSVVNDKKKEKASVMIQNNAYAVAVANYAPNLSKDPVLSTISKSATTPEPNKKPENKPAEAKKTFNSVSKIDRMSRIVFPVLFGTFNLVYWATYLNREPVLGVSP

[4] = biological target: T3, Gamma-aminobutyric acid receptor subunit alpha-3 (Homo sapiens) (UniProt P34903); assay: Binding affinity to GABA-A alpha3 (unknown origin) assessed as reduction in DMCM induced current relative to control
T3 sequence (whole entry): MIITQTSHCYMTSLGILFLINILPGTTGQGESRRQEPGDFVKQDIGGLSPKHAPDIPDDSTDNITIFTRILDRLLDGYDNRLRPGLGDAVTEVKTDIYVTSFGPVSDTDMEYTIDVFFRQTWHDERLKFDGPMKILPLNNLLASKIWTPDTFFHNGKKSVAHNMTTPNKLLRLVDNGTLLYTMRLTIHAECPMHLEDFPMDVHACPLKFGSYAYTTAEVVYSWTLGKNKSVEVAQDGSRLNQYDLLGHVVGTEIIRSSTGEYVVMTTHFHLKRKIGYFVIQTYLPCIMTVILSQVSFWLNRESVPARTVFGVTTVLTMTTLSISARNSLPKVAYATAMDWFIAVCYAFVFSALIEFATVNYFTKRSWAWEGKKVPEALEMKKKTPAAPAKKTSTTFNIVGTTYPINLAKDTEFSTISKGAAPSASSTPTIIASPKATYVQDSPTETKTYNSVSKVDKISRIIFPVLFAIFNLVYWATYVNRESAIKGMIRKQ

[5] = biological target: T4, Gamma-aminobutyric acid receptor subunit alpha-2 (Homo sapiens, UniProt P47869); assay: Binding affinity to GABA-A alpha2 (unknown origin)
T4 sequence (P47869 whole entry): T2 sequence (whole entry)

[6] = biological target: T5, Gamma-aminobutyric acid receptor subunit alpha-5 (Homo sapiens, UniProt P31644); assay: Binding affinity to GABA-A alpha5 (unknown origin)
T5 sequence (P31644 whole entry): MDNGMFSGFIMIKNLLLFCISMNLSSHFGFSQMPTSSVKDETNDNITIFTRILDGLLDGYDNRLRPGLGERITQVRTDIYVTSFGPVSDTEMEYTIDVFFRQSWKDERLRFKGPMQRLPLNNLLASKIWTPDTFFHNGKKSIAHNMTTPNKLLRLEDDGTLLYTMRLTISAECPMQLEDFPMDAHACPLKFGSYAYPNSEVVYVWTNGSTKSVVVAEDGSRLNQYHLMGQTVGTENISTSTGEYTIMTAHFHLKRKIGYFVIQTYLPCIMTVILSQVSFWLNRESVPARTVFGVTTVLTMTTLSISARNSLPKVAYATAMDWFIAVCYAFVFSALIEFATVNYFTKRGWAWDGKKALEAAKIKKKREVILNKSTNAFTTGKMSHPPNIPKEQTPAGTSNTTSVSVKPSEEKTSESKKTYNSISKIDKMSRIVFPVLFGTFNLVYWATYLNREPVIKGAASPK

[7] = biological target: T6, Gamma-aminobutyric acid receptor subunit alpha-1 (Homo sapiens, UniProt P14867); assay: Binding affinity to GABA-A alpha1 (unknown origin)
T6 sequence (P14867 whole entry): T1 sequence (whole entry)

[8] = biological target: T7, Gamma-aminobutyric acid receptor subunit alpha-3 (Homo sapiens, UniProt P34903); assay: Binding affinity to GABA-A alpha3 (unknown origin)
T7 sequence (P34903 whole entry): T3 sequence (whole entry)

[9] = biological target: T8, Gamma-aminobutyric acid receptor subunit alpha-5 (Homo sapiens) (UniProt P31644); assay: Binding affinity to GABA-A alpha5 (unknown origin) assessed as reduction in DMCM induced current relative to control
T8 sequence (whole entry): T5 sequence (P31644 whole entry)

[10] = species: Homo sapiens; assay: Selectivity ratio of Ki for binding affinity to GABAA alpha2beta3gamma2 (unknown origin) to Ki for binding affinity to GABAA alpha5beta3gamma2 (unknown origin)
[11] = species: Homo sapiens; assay: Selectivity ratio of Ki for binding affinity to GABAA alpha1beta3gamma2 (unknown origin) to Ki for binding affinity to GABAA alpha5beta3gamma2 (unknown origin)
[12] = species: Homo sapiens; assay: Selectivity ratio of Ki for binding affinity to GABAA alpha3beta3gamma2 (unknown origin) to Ki for binding affinity to GABAA alpha5beta3gamma2 (unknown origin)
[13] = biological target: T1, Gamma-aminobutyric acid receptor subunit alpha-1 (Homo sapiens); assay: Binding affinity to GABA-A alpha1 (unknown origin) assessed as increase in induced current relative to control
[14] = biological target: T8, Gamma-aminobutyric acid receptor subunit alpha-5 (Homo sapiens); assay: Binding affinity to GABA-A alpha5 (unknown origin) assessed as increase in induced current relative to control
[15] = biological target: T3, Gamma-aminobutyric acid receptor subunit alpha-3 (Homo sapiens); assay: Binding affinity to GABA-A alpha3 (unknown origin) assessed as increase in induced current relative to control
[16] = biological target: T2, Gamma-aminobutyric acid receptor subunit alpha-2 (Homo sapiens); assay: Binding affinity to GABA-A alpha2 (unknown origin) assessed as increase in induced current relative to control

Compound: C#Cc1ccc2c(c1)C(=O)N(C)Cc1c(C(=O)OCC)ncn1-2
- Activity [1]: 36%

Compound: Clc1ccc2c(c1)-c1ncnn1Cc1c(Cl)ncn1-2
- Efficacy [2]: -3%
- Efficacy [3]: -9%
- Efficacy [4]: -11%
- Ki [5]: 24 nM
- Ki [6]: 2 nM
- Ki [7]: 15 nM
- Ki [8]: 14 nM
- Efficacy [9]: -40%

Compound: COCc1ncn2c1CN(C)C(=O)c1cc(Cl)ccc1-2
- Efficacy [2]: 20%
- Efficacy [3]: 15%
- Efficacy [4]: 45%
- Ratio Ki [10]: 30 to 60
- Ratio Ki [11]: 30 to 60
- Ki [5]: 180 nM
- Activity [1]: 17%
- Ki [6]: 6 nM
- Ki [7]: 362 nM
- Ki [8]: 328 nM
- Efficacy [9]: -20%
- Ratio Ki [12]: 30 to 60

Compound: C#Cc1ccc2c(c1)C(c1ccccc1F)=N[C@H](C)c1c(C(=O)NC3CC3)ncn1-2
- Ratio Ki [10]: 6 to 15
- Ratio Ki [11]: 6 to 15
- Ki [5]: 789 nM
- Ki [6]: 79 nM
- fold change (FC) [13]: 1.22
- Ki [7]: 542 nM
- Ki [8]: 480 nM
- Ratio Ki [12]: 6 to 15
- fold change (FC) [14]: 1.23

Compound: CCCNC(=O)c1nnc2c(-c3cc(OC)ccc3OC)cccc2c1N [AZD6280]
- Ki [6]: 1680 nM
- Ki [7]: 0.5 nM
- Ki [8]: 3.1 nM

Compound: C#Cc1ccc2c(c1)C(c1ccccc1F)=N[C@H](C)c1c(C(=O)OCC)ncn1-2
- fold change (FC) [15]: 0.18
- fold change (FC) [13]: 0.25
- fold change (FC) [16]: 0.19
- fold change (FC) [14]: 1.19

Compound: Cc1onc(-c2ccc(F)cc2)c1COc1ccc(C(=O)N2CCS(=O)(=O)CC2)cn1 [BASMISANIL]
- Efficacy [2]: -4%
- Efficacy [3]: -6%
- Efficacy [4]: -2%
- Ki [5]: 502 nM
- Ki [6]: 4.7 nM
- Ki [7]: 985 nM
- Ki [8]: 489 nM
- Efficacy [9]: -39%

Compound: C#Cc1ccc2c(c1)C(c1ccccc1F)=N[C@H](C)c1c(C(=O)NC)ncn1-2
- fold change (FC) [15]: 0.2
- Ki [5]: 360 nM
- Ki [6]: 55 nM
- fold change (FC) [13]: 0.11
- Ki [7]: 850 nM
- Ki [8]: 660 nM
- fold change (FC) [16]: 0.5
- fold change (FC) [14]: 2.48

Compound: CCOC(=O)c1ncn2c1[C@@H]1CCCN1C(=O)c1cc(OC)ccc1-2
- Ratio Ki [10]: 50 to 100
- Ratio Ki [11]: 50 to 100
- Ki [5]: 17 to 360 nM
- Ki [7]: 17 to 360 nM
- Ki [8]: 17 to 360 nM
- Ratio Ki [12]: 50 to 100

Compound: c1ccc(-c2nnc3c4c(c(OCc5ccccn5)nn23)C2CCC4CC2)cc1
- Ki [5]: 26 nM
- Ki [7]: 71 nM
- Ki [8]: 12 nM

Compound: C#Cc1ccc2c(c1)C(c1ccccn1)=NCc1c(-c3cnco3)ncn1-2
- fold change (FC) [15]: 0.77
- fold change (FC) [13]: 0.35
- fold change (FC) [16]: 0.66

Compound: C#Cc1ccc2c(c1)C(c1ccccn1)=NCc1c(C(=O)OC)ncn1-2
- Activity [15]: 129%
- Ki [5]: 1000 nM
- Activity [13]: 25%
- Ki [8]: 1000 nM
- Activity [16]: 140%
- Activity [14]: 11%

Compound: C#Cc1ccc2c(c1)C(c1ccccc1F)=N[C@@H](C)c1c(C(=O)OCC)ncn1-2
- fold change (FC) [15]: 0.31
- fold change (FC) [13]: 0.3
- fold change (FC) [16]: 0.57
- fold change (FC) [14]: 1.19

Compound: CC(C)(O)c1ccc2c(c1)ncn2-c1cccc(-c2cc(C#N)ccc2Cl)n1
- fold change (FC) [15]: 0.47
- fold change (FC) [13]: -0.1
- fold change (FC) [16]: 0.27
- fold change (FC) [14]: 0.05

Compound: FC(F)c1ncn2c1Cn1ncnc1-c1cc(Br)ccc1-2
- Efficacy [2]: -3%
- Efficacy [3]: -4%
- Efficacy [4]: 2%
- Ki [5]: 185 nM
- Ki [6]: 4.6 nM
- Ki [7]: 174 nM
- Ki [8]: 80 nM
- Efficacy [9]: -35%

Compound: C#Cc1ccc2c(c1)C(c1ccccn1)=NCc1c(C(=O)OCC)ncn1-2
- fold change (FC) [15]: 0.36
- fold change (FC) [13]: 0.27
- fold change (FC) [16]: 0.52
- fold change (FC) [14]: 0.23

Compound: C#Cc1ccc2c(c1)C(c1ccccc1F)=N[C@H](C)c1c(C(=O)N(C)C)ncn1-2
- Ratio Ki [10]: 6 to 15
- Ratio Ki [11]: 6 to 15
- Ki [5]: 30000 nM
- Ki [6]: 5000 nM
- fold change (FC) [13]: 0.65
- Ki [7]: 55000 nM
- Ki [8]: 63000 nM
- Ratio Ki [12]: 6 to 15
- fold change (FC) [14]: 1.46
